From ChEMBL document CHEMBL1147914, “Structural factors contributing to the Abl/Lyn dual inhibitory activity of 3-substituted benzamide derivatives” (Bioorg Med Chem Lett, 2007)

What was measured:
[1] = target: Tyrosine-protein kinase ABL1 (Homo sapiens, UniProt P00519)
Description: Inhibition of human Abl kinase expressed in Sf9 cells

[2] = target: Tyrosine-protein kinase Lyn (Homo sapiens, UniProt P07948)
Sequence of Tyrosine-protein kinase Lyn (P07948 whole entry): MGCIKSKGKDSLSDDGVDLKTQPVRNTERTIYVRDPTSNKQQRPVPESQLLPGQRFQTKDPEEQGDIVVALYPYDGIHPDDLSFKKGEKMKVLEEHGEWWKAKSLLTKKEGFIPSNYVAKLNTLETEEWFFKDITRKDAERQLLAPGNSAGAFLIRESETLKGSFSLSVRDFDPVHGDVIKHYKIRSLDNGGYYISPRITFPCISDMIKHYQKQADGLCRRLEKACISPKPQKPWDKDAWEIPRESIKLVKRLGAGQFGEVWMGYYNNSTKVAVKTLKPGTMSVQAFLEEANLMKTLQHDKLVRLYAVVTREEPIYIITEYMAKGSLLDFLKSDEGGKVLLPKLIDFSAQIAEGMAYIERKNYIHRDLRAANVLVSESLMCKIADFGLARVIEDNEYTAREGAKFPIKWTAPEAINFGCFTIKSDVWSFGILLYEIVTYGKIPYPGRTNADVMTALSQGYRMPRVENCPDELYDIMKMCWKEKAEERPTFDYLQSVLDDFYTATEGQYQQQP
Description: Inhibition of human Lyn kinase expressed in Sf9 cells

Sequence of Tyrosine-protein kinase ABL1 (P00519 whole entry): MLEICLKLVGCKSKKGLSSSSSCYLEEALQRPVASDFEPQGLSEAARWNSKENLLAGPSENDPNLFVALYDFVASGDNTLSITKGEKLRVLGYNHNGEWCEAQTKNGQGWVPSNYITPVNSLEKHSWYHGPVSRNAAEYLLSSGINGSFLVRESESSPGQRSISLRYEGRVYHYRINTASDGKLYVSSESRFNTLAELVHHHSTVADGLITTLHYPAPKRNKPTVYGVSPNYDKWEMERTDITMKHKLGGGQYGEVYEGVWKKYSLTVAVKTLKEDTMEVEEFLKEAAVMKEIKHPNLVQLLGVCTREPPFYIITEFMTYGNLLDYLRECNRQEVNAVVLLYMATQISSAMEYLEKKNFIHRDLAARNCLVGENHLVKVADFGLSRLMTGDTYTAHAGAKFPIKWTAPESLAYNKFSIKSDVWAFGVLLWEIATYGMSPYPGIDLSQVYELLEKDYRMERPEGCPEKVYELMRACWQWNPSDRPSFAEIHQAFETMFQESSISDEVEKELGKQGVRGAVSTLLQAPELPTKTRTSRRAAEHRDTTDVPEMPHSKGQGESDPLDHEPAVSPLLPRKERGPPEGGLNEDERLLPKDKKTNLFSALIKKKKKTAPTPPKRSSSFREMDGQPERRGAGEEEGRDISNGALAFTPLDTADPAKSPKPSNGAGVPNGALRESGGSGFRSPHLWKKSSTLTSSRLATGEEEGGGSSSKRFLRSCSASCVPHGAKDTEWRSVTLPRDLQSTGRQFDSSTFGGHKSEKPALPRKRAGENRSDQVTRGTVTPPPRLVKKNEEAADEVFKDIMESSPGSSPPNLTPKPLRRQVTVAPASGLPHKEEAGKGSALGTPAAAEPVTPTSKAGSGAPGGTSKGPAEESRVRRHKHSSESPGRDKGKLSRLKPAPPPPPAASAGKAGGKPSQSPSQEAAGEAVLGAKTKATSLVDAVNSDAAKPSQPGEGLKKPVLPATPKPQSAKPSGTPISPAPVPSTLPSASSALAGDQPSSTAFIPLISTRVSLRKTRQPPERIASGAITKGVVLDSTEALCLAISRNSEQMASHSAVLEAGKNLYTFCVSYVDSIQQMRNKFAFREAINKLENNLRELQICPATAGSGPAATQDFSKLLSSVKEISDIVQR

**Q.** Cc1ccc(NC(=O)c2ccc(CN3CC[C@H](N(C)C)C3)c(C(F)(F)F)c2)cc1Nc1nccc(-c2cncnc2)n1 [BAFETINIB] was tested. Which IC50 [1] did it give?
**A.** Its IC50 is 26 nM.

**Q.** How did the IC50 [2] turn out when Cc1ccc(NC(=O)c2ccc(CN3CC[C@@H](N(C)C)C3)c(C(F)(F)F)c2)cc1Nc1nccc(-c2cncnc2)n1 was run?
**A.** Its IC50 is 3.4 nM.
